Experimental data published in US6117864A, “Methods employing stable preparation containing azelastine hydrochloride” (ASTA Medica Aktiengesellschaft, priority 1992, dated 2000).
Structures can show the parent of a compound that is named as a salt. Where two headings read alike, the source gives them in different places.

What was measured:
[1] = Azelastine hydrate production-suppressing effect of each of the additives (azelastine hydrochloride solutions, pH 8); format: physicochemical; design: key to Effect Against Production of Azelastine Hydrates: absolutely no hydrate formation; .largecircle.: absolutely no hydrate formation; Δ: hydrate formation decreased compared to the produced water; X: no hydrate production-suppressing effect; settings: for Effect Against Production of Azelastine Hydrates: 0.3 g azelastine hydrochloride in 100 ml, pH 8
Description: The azelastine hydrate production-suppressing effect was tested for each of the additives in azelastine hydro-chloride solutions. Each of the additives were added to 0.3 g of azelastine hydrochloride, the pH was adjusted to 8 with sodium hydroxide, and purified water was added to a total volume of 100 ml to determine whether or not azelastine hydrate crystals were produced. The identification of azelastine hydrate was carried out by filtering off the precipitates produced in the test solutions, drying them at room temperature, measuring thermal analysis (TG-DTA) (FIG. 1) and IR spectrum (azelastine hydrochloride reference standard: FIG. 2; azelastine hydrate: FIG. 3), and then comparing them to the standard.
Cases in which there was absolutely no hydrate formation are represented by [o], cases in which hydrate formation decreased compared to the produced water are represented by [Δ], and cases in which there was no hydrate production-suppressing effect are represented by [X].

[2] = cited from earlier work
[3] = cited from earlier work; for percutaneous absorbability: technique of SHO 63-278108
[4] = cited from earlier work; remark: listed apart in the source
[5] = dependence on pH; cited from earlier work

Structure (SMILES): CC(=O)O [Acetic Acid, reference compound]
- suppression of the production of azelastine hydrate (in words) [1]: not exhibited
- Effect Against Production of Azelastine Hydrates ([1]; amount added 0.5%): X

Structure (SMILES): CCCCCCCCCCCCCCCCCCCCCC(=O)O [Behenic Acid]
- Effect Against Production of Azelastine Hydrates ([1]; amount added 0.5%): .largecircle.

Structure (SMILES): CCCC(=O)O [Butyric Acid, reference compound]
- suppression of the production of azelastine hydrate (in words) [1]: not exhibited
- Effect Against Production of Azelastine Hydrates ([1]; amount added 0.5%): X

Structure (SMILES): CCCCCCCCCC(=O)O [Capric Acid]
- Effect Against Production of Azelastine Hydrates ([1]; amount added 0.5%): .largecircle.

Structure (SMILES): CCCCCC(=O)O [Caproic Acid, reference compound]
- Effect Against Production of Azelastine Hydrates ([1]; amount added 0.5%): X

Structure (SMILES): CCCCCCCC(=O)O [Caprylic Acid]
- Effect Against Production of Azelastine Hydrates ([1]; amount added 0.5%): Δ

Structure (SMILES): CCCCCCCC/C=C\CCCCCCCCCCCC(=O)O [Erucid Acid]
- Effect Against Production of Azelastine Hydrates ([1]; amount added 0.5%): .largecircle.

Structure (SMILES): CCO [Ethanol, reference compound]
- Effect Against Production of Azelastine Hydrates ([1]; amount added 30%): X

Structure (SMILES): CC(C)CCCCCCCCCCCCCCC(=O)O [Isostearic Acid]
- Effect Against Production of Azelastine Hydrates ([1]; amount added 0.5%): .largecircle.

Structure (SMILES): CCCCCCCCCCCC(=O)O [Lauric Acid]
- Effect Against Production of Azelastine Hydrates ([1]; amount added 0.5%): .largecircle.

Structure (SMILES): CC/C=C\C/C=C\C/C=C\CCCCCCCC(=O)O [Linolenic Acid]
- Effect Against Production of Azelastine Hydrates ([1]; amount added 0.5%): .largecircle.

Structure (SMILES): CCCCC/C=C\C/C=C\CCCCCCCC(=O)O [Linolic Acid]
- Effect Against Production of Azelastine Hydrates ([1]; amount added 0.5%): .largecircle.

Structure (SMILES): CCCCCCCCCCCCCC(=O)O [Myristic Acid]
- Effect Against Production of Azelastine Hydrates ([1]; amount added 0.1%): Δ
- Effect Against Production of Azelastine Hydrates ([1]; amount added 0.3%): .largecircle.
- Effect Against Production of Azelastine Hydrates ([1]; amount added 0.5%): .largecircle.

Structure (SMILES): CCCCCCCC/C=C\CCCCCCCC(=O)O [Oleic Acid]
- Effect Against Production of Azelastine Hydrates ([1]; amount added 0.1%): Δ
- Effect Against Production of Azelastine Hydrates ([1]; amount added 0.3%): .largecircle.
- Effect Against Production of Azelastine Hydrates ([1]; amount added 1% (1 or 1.0)): .largecircle.

Structure (SMILES): CCCCCCCCCCCCCCCC(=O)O [Palmitic Acid]
- Effect Against Production of Azelastine Hydrates ([1]; amount added 0.5%): .largecircle.

Structure (SMILES): CCCCCC/C=C\CCCCCCCC(=O)O [Palmitoleic Acid]
- Effect Against Production of Azelastine Hydrates ([1]; amount added 0.5%): .largecircle.

Structure (SMILES): CCC(=O)O [Propionic Acid, reference compound]
- suppression of the production of azelastine hydrate (in words) [1]: not exhibited
- Effect Against Production of Azelastine Hydrates ([1]; amount added 0.3%): X

Structure (SMILES): CC(O)CO (stereo not drawn) [Propylene glycol, reference compound]
- Effect Against Production of Azelastine Hydrates ([1]; amount added 30%): X

Structure (SMILES): CCCCCCCCCCCCCCCCCC(=O)O [Stearic Acid]
- Effect Against Production of Azelastine Hydrates ([1]; amount added 0.5%): .largecircle.

Structure (SMILES): CN1CCCC(n2nc(Cc3ccc(Cl)cc3)c3ccccc3c2=O)CC1 (stereo not drawn) [azelastine hydrate]
- solubility ([2]; in aqueous preparation, crystalline hydrates of non-dissociation type molecules): poor solubility

Structure (SMILES): CN1CCCC(n2nc(Cc3ccc(Cl)cc3)c3ccccc3c2=O)CC1 (stereo not drawn) [azelastine hydrochloride]
- increase in absorbability ([3]; technique of SHO 61-254532): no increase in absorbability was observed
- percutaneous absorbability ([3]; amount of azelastine hydrochloride high compared to the base): marked improvement
- percutaneous absorbability ([3]; amount of azelastine hydrochloride low compared to the base): poor percutaneous absorbability
- solubility in solvents ([2]; solvents which may be used in pharmaceutical compositions): low solubility

Structure (SMILES): CN1CCCC(n2nc(Cc3ccc(Cl)cc3)c3ccccc3c2=O)CC1 (stereo not drawn) [azelastine]
- acid dissociation constant (pKa) [4]: approximately 9.5

Structure (SMILES): CN1[C@@H]2C[C@@H](OC(=O)[C@H](CO)c3ccccc3)C[C@H]1[C@@H]1O[C@@H]12 [scopolamine]
- percutaneous penetration speed [5]: in direct proportion to the pH
